SMILES strings stand for the structures.

In the first assay the target is Human PDE4D catalytic domain (Homo sapiens (Human), UniProt Q08499). In words: Scintillation Proximity Assay (SPA), inhibition of PDE4D catalytic domain activity. Type of assay: biochemical. The settings on record: Compound concentration: 1 μM; read-out: PDE4D enzyme activity inhibition rate %. A general note: In a scintillation proximity assay essentially only radioactivity close to the scintillant gives light.
Sequence of Human PDE4D catalytic domain (Q08499 386-715): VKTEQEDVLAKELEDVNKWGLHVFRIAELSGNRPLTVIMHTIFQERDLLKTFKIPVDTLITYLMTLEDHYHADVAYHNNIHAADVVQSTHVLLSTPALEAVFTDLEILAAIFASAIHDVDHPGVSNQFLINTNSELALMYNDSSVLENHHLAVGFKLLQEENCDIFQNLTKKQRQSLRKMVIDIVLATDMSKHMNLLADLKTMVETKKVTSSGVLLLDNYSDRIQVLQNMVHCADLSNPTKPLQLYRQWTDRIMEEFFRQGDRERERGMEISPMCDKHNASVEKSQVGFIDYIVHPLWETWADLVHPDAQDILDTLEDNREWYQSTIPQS
With `COc1cc2c(cc1OC)[C@H](CCc1csc3ccccc13)N(C=O)CC2` [(S)-C61, (S)-1-(2-(benzo[b]thiothiophen-3-yl)ethyl)-6,7-dimethoxy-3,4-dihydroisoquinoline-2(1H)-formaldehyde], the inhibition at 1 µM was 70.8%.

Regarding `COc1ccc2[nH]cc(CC[C@H]3c4cc(C(=O)O)c(OC)cc4CCN3C=O)c2c1` [(S)-C68, (S)-2-formyl-6-methoxy-1-(2-(5-methoxy-1H-indol-3-yl)ethyl)-1,2,3,4-tetrahydroisoquinoline-7-carboxylic acid], the inhibition at 1 µM is 83.1%.

For the compound `CCOc1cc2c(cc1OC)CCN(S(=O)(=O)c1ccc(F)cc1)[C@H]2CCc1c[nH]c2ccc(OC)cc12` [(S)-C58, (S)-7-ethoxy-6-methoxy-1-(2-(5-methoxy-1H-indol-3-yl)ethyl)-2-(4-fluorophenyl)sulfonyl-1,2,3,4-tetrahydroisoquinoline], the inhibition at 1 µM is 49.7%.

Regarding `CCOc1cc2c(cc1OC)CCN(C(=O)C(F)F)[C@H]2CCc1c[nH]c2ccc(OC)cc12` [(S)-C59, (S)-7-ethoxy-1-(2-(5-methoxy-1H-indol-3-yl)ethyl)-6-methoxy-3,4-dihydroisoquinolin-2(1H)-2,2-difluoroethane-1-one], the inhibition at 1 µM was found to be 42.4%.

Take `CCOc1cc2c(cc1OC)CCN(S(=O)(=O)c1ccc(Br)c(F)c1)[C@H]2CCc1c[nH]c2ccc(OC)cc12` [(S)-C56, (S)-7-ethoxy-6-methoxy-1-(2-(5-methoxy-1H-indol-3-yl)ethyl)-2-(3-fluoro-4-bromophenyl) sulfonyl-1,2,3,4-tetrahydroisoquinoline]: the inhibition at 1 µM is 66.4%.

In the case of `CCOc1cc2c(cc1OC)CCN(S(=O)(=O)c1ccccc1)[C@H]2CCc1c[nH]c2ccc(OC)cc12` [(S)-C47, (S)-7-ethoxy-6-methoxy-1-(2-(5-methoxy-1H-indol-3-yl)ethyl)-2-phenylsulfonyl-1,2,3,4-tetrahydroisoquinoline], the inhibition at 1 µM came to 49.4%.

`CCOc1cc2c(cc1OC)CCN(S(=O)(=O)c1ccc(F)cc1F)[C@H]2CCc1c[nH]c2ccc(OC)cc12` [(S)-C52, (S)-7-ethoxy-6-methoxy-1-(2-(5-methoxy-1H-indol-3-yl)ethyl)-2-(2,4-difluorophenyl)sulfonyl-1,2,3,4-tetrahydroisoquinoline]: the inhibition at 1 µM was 36.8%.

As for `CCOc1cc2c(cc1OC)CCN(C=O)[C@H]2CCc1c[nH]c2ccc(OC(F)F)cc12` [(S)-C77, (S)-7-ethoxy-6-methoxy-1-(2-(5-difluoromethoxy-1H-indol-3-yl)ethyl)-3,4-dihydroisoquinoline-2(1H)-formaldehyde], the inhibition at 1 µM came out at 93.5%.

`CCOc1cc2c(cc1OC)CCN(S(=O)(=O)c1cccc(F)c1)[C@H]2CCc1c[nH]c2ccc(OC)cc12` [(S)-C50, (S)-7-ethoxy-6-methoxy-1-(2-(5-methoxy-1H-indol-3-yl)ethyl)-2-(3-fluorophenyl)sulfonyl-1,2,3,4-tetrahydroisoquinoline]: the inhibition at 1 µM was 49.4%.

`CCOc1cc2c(cc1OC)CCN(C=O)[C@H]2CCc1c[nH]c2ccc(OC(F)(F)F)cc12` [(S)-C76, (S)-7-ethoxy-6-methoxy-1-(2-(5-trifluoromethoxy-1H-indol-3-yl)ethyl)-3,4-dihydroisoquinoline-2(1H)-formaldehyde]: the inhibition at 1 µM came out at 92.3%.

In the case of `COc1ccc2[nH]cc(CC[C@H]3c4cc(C(N)=O)c(OC)cc4CCN3C=O)c2c1` [(S)-C70, (S)-2-formyl-6-methoxy-1-(2-(5-methoxy-1H-indol-3-yl)ethyl)-1,2,3,4-tetrahydroisoquinoline-7-carboxamide], the inhibition at 1 µM worked out at 83.8%.

Regarding `CCOc1cc2c(cc1OC)CCN(S(=O)(=O)c1ccc(OC)cc1)[C@H]2CCc1c[nH]c2ccc(OC)cc12` [(S)-C60, (S)-7-ethoxy-6-methoxy-1-(2-(5-methoxy-1H-indol-3-yl)ethyl)-2-(4-methoxyphenyl)sulfonyl-1,2,3,4-tetrahydroisoquinoline], the inhibition at 1 µM came to 42%.

For the compound `CCOc1cc2c(cc1OC)CCN(S(=O)(=O)CC)[C@H]2CCc1c[nH]c2ccc(OC)cc12` [(S)-C53, (S)-7-ethoxy-6-methoxy-1-(2-(5-methoxy-1H-indol-3-yl)ethyl)-2-ethylsulfonyl-1,2,3,4-tetrahydroisoquinoline], the inhibition at 1 µM is 56.3%.

For the compound `CCOc1cc2c(cc1OC)CCN(S(=O)(=O)c1ccccc1F)[C@H]2CCc1c[nH]c2ccc(OC)cc12` [(S)-C57, (S)-7-ethoxy-6-methoxy-1-(2-(5-methoxy-1H-indol-3-yl)ethyl)-2-(2-fluorophenyl)sulfonyl-1,2,3,4-tetrahydroisoquinoline], the inhibition at 1 µM stood at 66.5%.

`CCOc1cc2c(cc1OC)CCN(S(=O)(=O)C1CC1)[C@H]2CCc1c[nH]c2ccc(OC)cc12` [(S)-C48, (S)-7-ethoxy-6-methoxy-1-(2-(5-methoxy-1H-indol-3-yl)ethyl)-2-cyclopropylsulfonyl-1,2,3,4-tetrahydroisoquinoline]: the inhibition at 1 µM turned out to be 62%.

Take `CNC(=O)c1cc2c(cc1OC)CCN(C=O)[C@H]2CCc1c[nH]c2ccc(OC)cc12` [(S)-C69, (S)-2-formyl-6-methoxy-1-(2-(5-methoxy-1H-indol-3-yl)ethyl)-N-methyl-1,2,3,4-tetrahydroisoquinoline-7-carboxamide]: the inhibition at 1 µM came to 80.5%.

As for `CCOc1cc2c(cc1OC)CCN(C=O)[C@H]2CCc1c[nH]c2ccc(C#N)cc12` [(S)-C65, (S)-7-ethoxy-6-methoxy-1-(2-(5-cyano-1H-indol-3-yl)ethyl)-3,4-dihydroisoquinoline-2(1H)-formaldehyde], the inhibition at 1 µM was determined as 68.7%.

Still in this assay, the particulars now being: read-out: PDE4D enzyme activity inhibition rate %.
As to `COc1ccc2[nH]cc(CC[C@H]3c4cc(OC(F)(F)F)c(OC)cc4CCN3C=O)c2c1` [(S)-C63, (S)-7-trifluoromethoxy-1-(2-(5-methoxy-1H-indol-3-yl)ethyl)-6-methoxy-3,4-dihydroisoquinoline-2(1H)-formaldehyde], the inhibition at 1 µM amounted to 75.3%.

For the compound `COC(=O)c1cc2c(cc1OC)CCN(C=O)[C@H]2CCc1c[nH]c2ccc(OC)cc12` [(S)-C66, methyl-(S)-2-formyl-6-methoxy-1-(2-(5-methoxy-1H-indol-3-yl)ethyl)-1,2,3,4-tetrahydroisoquinoline-7-carboxylate], the inhibition at 1 µM came out at 88.4%.

Consider `COC(=O)c1cc2c(cc1OC)[C@H](CCc1c[nH]c3ccc(OC)cc13)N(C=O)CC2` [(S)-C67, methyl-(S)-2-formyl-7-methoxy-1-(2-(5-methoxy-1H-indol-3-yl)ethyl)-1,2,3,4-tetrahydroisoquinoline-6-carboxylate], for which the inhibition at 1 µM amounted to 85.9%.

Regarding `COc1ccc2[nH]cc(CC[C@H]3c4cc(C(F)F)c(OC)cc4CCN3C=O)c2c1` [(S)-C71, (S)-7-difluoromethyl-1-(2-(5-methoxy-1H-indol-3-yl)ethyl)-6-methoxy-3,4-dihydroisoquinoline-2(1H)-formaldehyde], the inhibition at 1 µM was determined as 81.8%.

As to `COc1ccc2[nH]cc(CC[C@H]3c4cc(OC(F)F)c(OC)cc4CCN3C=O)c2c1` [(S)-C64, (S)-7-difluoromethoxy-1-(2-(5-methoxy-1H-indol-3-yl)ethyl)-6-methoxy-3,4-dihydroisoquinoline-2(1H)-formaldehyde], the inhibition at 1 µM worked out at 76.5%.

Broadly, the inhibition is how much of the control response was suppressed.

For the origin of these results see patent US12145923B2, “Tetrahydroisoquinoline compound, preparation method therefor, pharmaceutical composition containing same, and use thereof” (SHANGHAI INSTITUTE OF MATERIA MEDICA, CHINESE ACADEMY OF …, priority 2018, dated 2024).
